Assay results published in patent publication US20090325803A1, “CONTROL OF AQUATIC WEEDS USING SELECTED HERBICIDAL COMBINATIONS WITH A SYNTHETIC AUXIN” (priority 2008, published 2009).

Legend:
Assay type in all cases: in vivo
[1] = test system: Eurasian watermilfoil (EWM); assay: Root and shoot dry weights of Eurasian watermilfoil after treatment with triclopyr, 2,4-d, diquat alone and in combination, harvest at 32 d (Example 3); settings: single herbicide at 50 ppb, vs untreated controls
Text: Apical sections (12 to 15 cm in length) of Eurasian watermilfoil (EWM) were planted into small pots (13.5 cm length×3.75 cm diameter) containing Wallace Farm® (topsoil amended with 14-14-14 slow release Osmocote® fertilizer (˜2.5 g Osmocote/kg soil). Approximately 5 to 7 cm of the apical section extended above the sediment at planting, and a sand cap was placed over the potting soil (˜2 cm deep). Plants were then transferred to a 12 L acrylic tanks filled with well water. Plants were allowed to grow to two-thirds the height of tanks (approximately 7 d) before the following treatment was initiated in triple replicate: 1) Untreated controls, 2) triclopyr 50 ppb, 3) 2,4-d 50 ppb, 4) diquat 50 ppb, 5) diquat 50 ppb+triclopyr 50 ppb, 6) diquat 50 ppb+2,4-d 50 ppb. Plants were harvested at 32 d. At harvest, plants were rinsed free of algae, roots and shoots were separated, and placed in paper sacks in a drying oven for 4 d at 70° C. temperature, and dry weights were determined (FIG. 3.1).

[2] = test system: Eurasian watermilfoil (EWM); assay: GR50 and Isobole analysis of triclopyr and 2,4-d alone and in combination, above ground biomass 33 days after treatment (Example 4); settings: total herbicide concentration, regression of 30-120 ppb treatments, n=3
Text: Eurasian watermilfoil (EWM) was collected from ponds in Seymour, Ind. Single apical meristems were planted into small pots (13.5 cm length×3.75 cm diameter) containing Wallace Farm® (topsoil amended with 14-14-14 slow release Osmocote® fertilizer (˜2.5 g Osmocote/kg soil). Approximately 5 to 7 cm of the apical section extended above the sediment at planting, and a sand cap was placed over the potting soil (˜2 cm deep). Plants were then transferred to a 12 L acrylic tanks filled with well water. Tanks were maintained in a growth room with 14:10 h photoperiod at 26° C. Plants were allowed to establish growth for 26 days before they were treated.
Pretreatment above ground biomass was harvested the day of the treatment and dry weights were determined. Treatments were replicated three times in a completely randomized design. […]
All above ground biomass was harvested 33 days after treatment. Biomass was dried to constant moisture at 70° C. for 3 d, and dry weights were determined. Data were subjected to regression analysis using Sigma Plot software, and a GR50 was determined (concentration causing a 50% reduction in dry weight) for each treatment. […]

[3] = test system: Eurasian watermilfoil (EWM); assay: Root and shoot dry weights of Eurasian watermilfoil after 40 d exposure to triclopyr and fluridone, 12 L tanks (Example 2); settings: triclopyr 75 ppb alone
Text: Apical sections (12 to 15 cm in length) of Eurasian watennilfoil (EWM) were planted into small pots (13.5 cm length×3.75 cm diameter) containing Wallace Farm® topsoil amended with 14-14-14 slow release Osmocote® fertilizer (˜2.5 g Osmocote/kg soil). Approximately 5 to 7 cm of the apical section extended above the sediment at planting, and a sand cap was placed over the potting soil (˜2 cm deep). Plants were then transferred to a 12 L acrylic tanks filled with well water. Plants were allowed to grow for 7 d before the following treatments were initiated in triple replicate: 1) fluridone at 10 ppb, 2) triclopyr at 75 ppb, 3) fluridone (10 ppb) plus triclopyr (75 ppb), 4) untreated controls. Plants were harvested at 40 d. At harvest, plants were rinsed free of algae, roots and shoots were separated, and placed in paper sacks in a drying oven for 4 d at 70° C. temperature, and dry weights were determined (FIG. 2.1).

Row | SMILES | reduction in root biomass [1] [%] | GR50 (concentration causing a 50% reduction in dry weight) [2] [ppb] | reduction of below ground biomass ([3]; root dry weight) [%] | reduction of above ground biomass ([3]; shoot dry weight) [%]
1 | O=C(O)COc1ccc(Cl)cc1Cl [2,4-d, (2,4-dichlorophenoxy) acetic acid] | 66 | 162.6 |  | 
2 | c1cc[n+]2c(c1)-c1cccc[n+]1CC2 [diquat, 1,1′-ethylene 2,2′-dipyridylium dibromide] | 86 |  |  | 
3 | O=C(O)COc1nc(Cl)c(Cl)cc1Cl [triclopyr, 3,5,6-trichloro-2-pyridyloxyacetic acid] | 90 | 63.0 | 74 | 96
